The record followed here is PubChem BioAssay (NCI).

Values joined by “and” are separate entries in the source; they are usually repeats but may differ in a detail not shown here. Identical values can stand only once.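 96-well plates; 48 h exposure; 5 concentrations. Endpoints by linear interpolation between flanking doses. Not reached: highest tested concentration assigned. GI50 = concentration required for 50% inhibition of growth. At the TGI there is no net growth.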

Holding throughout (experiment): DTP human tumour cell line panel, 48 h
For experiment [1], the system named is ACHN renal.
For experiment [2], the system named is HCT-116 colon.
The subject of experiment [3] is NCI-H23 lung.
The test system of experiment [4] is NCI/ADR-RES ovarian.
Experiment [5] deals with SN12C renal.
Experiment [6] deals with CAKI-1 renal.
For experiment [7], the system named is HS 578T breast.
Experiment [8] deals with KM12 colon.
Experiment [9] deals with EKVX NSCLC.
Experiment [10] concerns NCI-H522 lung.

Broadly, the GI50 is the concentration giving 50% growth inhibition. As usually defined, the TGI is the concentration giving total growth inhibition. A low value points to more potent growth arrest. For the molecule `Cc1csc(/C=C/C(=O)c2nnn(-c3ccnc4c(C(F)(F)F)cccc34)c2C)c1`, the GI50 is more than 100 µM in [1]; 39.9 µM in experiment [2]; 48.9 µM in [3]; 47.7 µM in [4]; 25 µM in experiment [5]; 42.4 µM in experiment [6]. For the same molecule, the GI50 in [7] was more than 100 µM; in [8], 52.7 µM; in experiment [9] it was 69.3 µM; in [10], 26.4 µM. Also, the TGI in experiment [1], in experiment [2], in [3], in [4], in experiment [5] and in [6] was more than 100 µM in each case. Moreover, the TGI in [7], in [8], in [9] and in experiment [10] was more than 100 µM in each case.

Turning to `Clc1ccc(-c2c3c(nn2-c2ccccn2)CCc2ccccc2-3)cc1Cl`, the GI50 was 74 µM in experiment [1]; 76.1 µM in experiment [2]; more than 100 µM in experiment [3]; more than 100 µM in experiment [4]; more than 100 µM in experiment [5]; more than 100 µM in experiment [6]. The GI50 in [7], in experiment [8], in experiment [9] and in experiment [10] was more than 100 µM throughout. In addition, the concentration for total growth inhibition (TGI) in [1], in [2], in experiment [3], in [4], in [5] and in experiment [6] was more than 100 µM each time. Also, the TGI in [7], in [8], in [9] and in experiment [10] was more than 100 µM each time.

`CC(C)=CCC/C(C)=C/CC/C(C)=C/CSc1ccccc1C(=O)O`: the total growth inhibition concentration (TGI) in experiment [1] is more than 100 µM; in experiment [2], 56.7 µM and 30.4 µM; in [3] it was 61.4 µM and 36.3 µM; in [4] it was > 100 µM and 47.3 µM; in [5] it was 56.4 µM and 51.9 µM; in experiment [6], 71.6 µM and 38.3 µM. Further, the TGI in experiment [7] is > 100 µM and 44.5 µM; in experiment [8], 35.8 µM and 33.5 µM; in [9] it was > 84.9 µM and 45.1 µM; in experiment [10] it was 52 µM. The GI50 in experiment [3] was 23.6 µM; in experiment [4], 34.5 µM; in experiment [6], 28.1 µM; in [7] it was 33 µM; in experiment [9], 29.8 µM; in experiment [10], 21.6 µM.

`CCOC(=O)c1cc2c(cc1Cl)SC(N(c1ccc(OC)cc1)S(=O)(=O)c1ccc(Cl)cc1)=NS2(=O)=O`: the GI50 is 35 µM in experiment [1]; 35.8 µM in experiment [2]; 34.6 µM in experiment [3]; 31.5 µM in [4]; 31.8 µM in experiment [5]; 35.8 µM in experiment [6]. Further, the GI50 was 46.7 µM in [7], 46.7 µM in [8], 41.7 µM in [9] and 21 µM in experiment [10]. Besides, the TGI was more than 100 µM in experiment [1]; more than 100 µM in experiment [2]; more than 100 µM in experiment [3]; 88.6 µM in experiment [4]; more than 100 µM in [5]; more than 100 µM in experiment [6]. Further, the total growth inhibition concentration (TGI) in experiment [7] was more than 100 µM; in experiment [8], more than 100 µM; in experiment [9] it was more than 100 µM; in [10], 64.8 µM.

With `C#CCSc1cc(Cl)c(C)cc1S(=O)(=O)Nc1nc2ccccc2o1`, the GI50 was 35.2 µM in experiment [1]; 24.5 µM in [2]; 35.9 µM in experiment [3]; 42.9 µM in [4]; 43.5 µM in experiment [5]; 26.3 µM in experiment [6]. The GI50 is 44.2 µM in [7], 27.4 µM in [8], 43.4 µM in [9] and 25.7 µM in experiment [10]. The TGI is more than 100 µM in experiment [1]; 55.1 µM in experiment [2]; 87.8 µM in [3]; more than 100 µM in [4]; more than 100 µM in experiment [5]; 67.9 µM in experiment [6]. Besides, the concentration for total growth inhibition (TGI) in experiment [7] is more than 100 µM; in experiment [8], 75.4 µM; in [9] it was more than 100 µM; in experiment [10], 61.5 µM.

On to `CCN(CC)CCCNCc1cc(-c2ccccc2)nc2ccccc12`, for which the GI50 in experiment [1] was 33.3 µM; in [2], 0.352 µM; in experiment [3], 6.07 µM; in experiment [4] it was 2.35 µM; in experiment [5], 4.52 µM; in experiment [6], 19.5 µM. Besides, the GI50 in experiment [7] is 16.8 µM; in experiment [8], 15 µM; in [9], 89.2 µM; in experiment [10] it was 15.9 µM. Also, the TGI in [1] was more than 100 µM; in [2], 17.9 µM; in [3], 85.2 µM; in [4] it was 6.51 µM; in [5], more than 100 µM; in [6] it was more than 100 µM. Besides, the concentration for total growth inhibition (TGI) in experiment [7] is more than 100 µM; in experiment [8], more than 100 µM; in experiment [9] it was more than 100 µM; in experiment [10], 52.3 µM.

Consider `CCN(CC)CC(O)CNc1c2ccc([N+](=O)[O-])cc2nc2cc(OC)c(OC)cc12` (stereo unspecified), for which the concentration for 50% growth inhibition (GI50) was 0.396 µM in experiment [1]; 0.2 µM in [2]; 0.22 µM in experiment [3]; 4.63 µM in experiment [4]; 0.335 µM in [5]; 4.5 µM in experiment [6]. Further, the GI50 was 0.728 µM in experiment [7], 0.343 µM in [8], 0.336 µM in experiment [9] and 0.267 µM in [10]. In addition, the TGI in experiment [1] is 2.36 µM; in experiment [2], 0.636 µM; in experiment [3] it was 0.705 µM; in experiment [4], 18.7 µM; in experiment [5], 2.79 µM; in [6] it was 16.6 µM. Moreover, the total growth inhibition concentration (TGI) in [7] is 5.09 µM; in [8], 1.37 µM; in experiment [9], 1.85 µM; in experiment [10] it was 0.823 µM.

For `Oc1ccc(-c2nc3ccccc3s2)cc1CN(Cc1ccccn1)Cc1ccccn1`, the GI50 in experiment [1] is 0.0991 µM; in experiment [2] it was 0.59 µM; in experiment [3], 2.64 µM; in experiment [4], 0.359 µM; in experiment [5], 1.7 µM; in experiment [6] it was 0.313 µM. Besides, the GI50 in [7] is 4.66 µM; in experiment [8] it was 0.909 µM; in [9] it was 1.2 µM; in [10] it was 2.83 µM. Moreover, the TGI in [1] is 3.91 µM; in [2], 14 µM; in [3], 24.3 µM; in experiment [4] it was 4.22 µM; in experiment [5], 14.4 µM; in [6], 3.36 µM. Also, the TGI in experiment [7] came out at 39.4 µM; in experiment [8], 15.6 µM; in experiment [9], 14.9 µM; in experiment [10], 14.2 µM.

`C[As](C)SCC(COC(=O)C(Cl)c1ccccc1)OC(=O)C(Cl)c1ccccc1` (stereo unspecified): the GI50 in [1] is 1.36 µM; in experiment [2] it was 0.439 µM; in [3], 0.719 µM; in [4], 2.76 µM; in [5], 2.48 µM; in experiment [6], 0.506 µM. Besides, the GI50 in experiment [7] was 3.4 µM; in [8], 2.24 µM; in experiment [9], 2.44 µM; in [10], 0.361 µM. The total growth inhibition concentration (TGI) in [1] was 11.4 µM; in [2] it was 2.67 µM; in [3], 14.6 µM; in experiment [4] it was 16.8 µM; in [5], 10.9 µM; in experiment [6] it was 6.58 µM. For the same molecule, the concentration for total growth inhibition (TGI) in [7] is 46.5 µM; in experiment [8], 13.5 µM; in experiment [9], 24.3 µM; in experiment [10], more than 38.8 µM.

Regarding `C[C@@]12CCC[C@@](C)(C(=O)O)C1CC[C@]13C[C@@](O)(CO)[C@](O)(CCC12)C3` (stereo partly specified), the GI50 in experiment [1], in [2], in experiment [3], in experiment [4], in experiment [5] and in experiment [6] was more than 100 µM throughout. Besides, the GI50 in [7], in experiment [8], in experiment [9] and in [10] was more than 100 µM throughout. Moreover, the TGI in experiment [1], in [2], in experiment [3], in experiment [4], in experiment [5] and in [6] was more than 100 µM each time. Besides, the TGI in experiment [7], in experiment [8], in experiment [9] and in experiment [10] was more than 100 µM throughout.

Turning to `COc1cc(C2SCC(=O)N2c2ncc(C)s2)cc(OC)c1OC` (stereo unspecified), the GI50 is 30.8 µM in experiment [1]; 27.5 µM in experiment [2]; 30.6 µM in [3]; 29 µM in experiment [4]; 13.3 µM in experiment [5]; 12 µM in experiment [6]. Further, the GI50 in [7] was 44.6 µM; in experiment [8], 18.7 µM; in experiment [9], 43.9 µM; in experiment [10], more than 50 µM. The TGI in experiment [1], in [2], in [3], in experiment [4], in [5] and in experiment [6] was more than 50 µM throughout. In addition, the TGI in experiment [7], in experiment [8], in experiment [9] and in experiment [10] was more than 50 µM in each case.
